Several values for one entry are separate records, joined by “and”; a condition that tells them apart may be missing. Equal values may be shown once. Entries after “also recorded” stand apart in the source; their conditions may differ. Read-outs that look alike come from different tables or passages of the source.
Columns and labels:
[1] = test system: APAP-induced liver injury; conditions: cited from earlier work
[2] = test system: PAMPs-induced TNF release (LPS, PGN, poly I:C, S100A12); conditions: Yang 2015; cited from earlier work
[3] = test system: liver ischemia and reperfusion injury; conditions: cited from earlier work
[4] = test system: PAMPs-induced TNF release (LPS, PGN, poly I:C, S100A12); assay: PAMPs-induced TNF release in human macrophages; type: cell-based; conditions: human primary macrophages, increasing amounts of K883, 16 hours
Protocol: TNF released was measured.

[5] = test system: APAP-induced liver injury; assay: APAP-induced liver injury model; type: in vivo, mouse
[6] = test system: STZ-induced diabetes; assay: STZ-induced diabetes model; type: in vivo; conditions: STZ-diabetic mice, repetitive K883 500 μg/mouse, vs PBS
Protocol: Mice were administered repetitive administration of […] (500 μg/mouse). […] Repetitive administration of […] was therefore shown to be beneficial in STZ-induced diabetes. […] (*: P<0.05 vs. PBS group. N=6-8 mice per group).

[7] = pharmacokinetics after intravenous administration in rats (LC-MS); conditions: IV 1 mg/kg
[8] = test system: CCI-induced neuropathic pain; assay: chronic constriction injury (CCI) of the sciatic nerve neuropathic pain model; type: in vivo, rat
Protocol: The CCI rats each received surgery. […] Mechanical and thermal sensitivity tests were also performed over time. Hargreaves Thermal Hypersensitivity test was administered to the rats as well as Von Frey mechanical hypersensitivity test.
Rats (male Wistar, 150-180 gm, n=6/group) had CCI surgery. […] Two weeks after surgery, thermal (Hargreaves) or mechanical (von Frey) hypersensitivity was assessed. *: P<0.05 vs. PBS group.
In this experiment, male Wistar rats (n=6/group) had CCI surgery. […] Mechanical allodynia was assessed 5 hours later. N=6-8 rats/group. *: p<0.05) vs. HMGB 1 alone. Mechanical and thermal sensitivity tests were also performed over time.

[9] = stability under acidic conditions (LC-MS); type: physicochemical; conditions: pH=2, two hours
[10] = test system: influenza virus A/PR/8/34 (PR8); assay: lethal influenza infection model; type: in vivo; conditions: C57BL/6J mice; K883 100 ug/mouse intraperitoneally for 5 consecutive days from two days after infection; vs vehicle
[11] = test system: liver ischemia and reperfusion injury; assay: warm liver ischemia and reperfusion (I/R) model; type: in vivo, mouse; conditions: 6 hours after reperfusion, K883 vs vehicle control; FIGS. 21A-C
Protocol: […] (SEQ ID NO: 1) (or vehicle control) was administered intraperitoneally at 500 μg/mouse at the time of I/R surgery and euthanized 6 hours later. Serum levels of ALT and AST were reduced in […] (SEQ ID NO: 1)-treated group vs. vehicle controls. *: P<0.05 vs. I/R group. n=5-7 mice/group.

**Q.** Which “liver necrosis (H&E)” value ([1]; APAP 350 mg/kg, P5779 50 or 500 μg/mouse IP at 2 and 7 hours post-APAP, vs scrambled control peptide) does the source give for `NC(=O)[C@H](CCC(=O)O)NC(=O)[C@H](CO)NC(=O)[C@H](CO)NC(=O)[C@@H](N)Cc1ccccc1` [P5779] here?
**A.** The value was “reduced liver necrosis”.

**Q.** And the “percent survival (2 weeks) post-APAP” value ([1]; APAP 400 mg/kg, P5779 500 μg/mouse IP once a day for 5 days starting 2 hours post-APAP)?
**A.** The value was “significantly improved”.

**Q.** And the “suppression of TNF release in macrophages stimulated by LPS, PGN, Poly I:C, CpG DNA or S100 A12” value [2]?
**A.** Its value is “not suppress TNF release”.

**Q.** What about the “liver inflammation, H&E (neutrophil infiltration)” value ([3]; 6 hours after reperfusion, P5779 vs vehicle control) of the same compound?
**A.** The value was “reduced inflammation”.

**Q.** And the “serum levels of ALT and AST” value ([3]; male C57BL/6 mice, 500 μg/mouse IP at the time of I/R surgery, 6 hours, vs vehicle)?
**A.** The value was “reduced”.

**Q.** With `NC(=O)N(CCC(=O)O)NC(=O)[C@H](CO)NC(=O)[C@H](CO)NC(=O)N(N)Cc1ccccc1` [K883] as the compound, how does the “inhibition of TNF release induced by other PAMPs (LPS, PGN, AGE, Poly I:C)” value [4] read?
**A.** Its value is “failed to inhibit other PAMPS; also recorded: does not inhibit other PAMPs”.

**Q.** What about the “serum ALT” value ([5]; 50 ugs/mouse of K883, vs vehicle controls) of the same compound?
**A.** The value was “reduced serum ALT”.

**Q.** And the “liver necrosis (H&E)” value ([5]; APAP 350 mg/kg IP, K883 50 μg/mouse IP at 2 and 7 hours post-APAP, 24 hours, vs vehicle)?
**A.** Its value is “reduced liver necrosis”.

**Q.** And the “survival (2 weeks) post-APAP” value ([5]; APAP 400 mg/kg, 50 μg/mouse IP once-a-day for 5 days starting 2 hours post-APAP, 8 in the control group)?
**A.** The value was 14 mice out of 15.

**Q.** And the hyperglycemia [6]?
**A.** The hyperglycemia was “delays hyperglycemia”.

**Q.** What about the insulitis [6] of the same compound?
**A.** Its insulitis is “reduces insulitis”.

**Q.** And the weight gain [6]?
**A.** The weight gain was “improves weight gain”.

**Q.** And the “AUC∞” value ([7]; Mean)?
**A.** The value was 3778 ng·h/mL.

**Q.** What about the “AUC∞” value ([7]; individual rats, 1 mg/kg) of the same compound?
**A.** Its value is 3808 ng·h/mL and 3751 ng·h/mL.

**Q.** What about the “tolerance to repeated treatment” value ([8]; K883 800 μg/rat IP once daily for three days, evaluated for 2 weeks) of the same compound?
**A.** The value was “did not develop tolerance”.

**Q.** What about the “Paw Withdrawal Latency” value ([8]; NO CCI (reference value)) of the same compound?
**A.** Its value is 9.5 ± 1.0 s.

**Q.** And the “CCI-induced thermal (Hargreaves) and mechanical (von Frey) hypersensitivity” value ([8]; male Wistar rats, K883 800 μg/rat IP once a day for 3 days, vs PBS)?
**A.** The value was “ameliorated both mechanical and thermal hypersensitivity; also recorded: improved CCI-induced thermal and mechanical hypersensitivity; also recorded: ameliorated the thermal hypersensitivity”.

**Q.** What about the “CCI-induced CXCL1, TNF and IL-1β expression (spine)” value ([8]; spine) of the same compound?
**A.** Its value is “reduce CCI-induced CSCL1, TNF and IL-1(3 expression”.

**Q.** And the “stability under acidic conditions” value [9]?
**A.** The value was “resistant to acid hydrolysis”.

**Q.** And the “survival (14 days) after PR8 infection” value [10]?
**A.** Its value is “significant survival”.

**Q.** What about the “liver inflammation, H&E (neutrophil infiltration)” value [11] of the same compound?
**A.** Its value is “reduced inflammation”.

Source: patent US11684652B2, “HMGB1 antagonist treatment of acute lung injury” (THE FEINSTEIN INSTITUTES FOR MEDICAL RESEARCH, priority 2019, dated 2023)
